Measured values as given in publication PMC5717258, “Bioaccumulation of pharmaceuticals and personal care product chemicals in fish exposed to wastewater effluent in an urban wetland” (Scientific Reports, 2017).
Read-outs that look alike come from different tables or passages of the source.

Columns and labels:
[1] = cited from earlier work; for Sculpin (whole body) concentration: Table S7, ref Meador et al. (2016); for whole fish concentration, sculpin: ref Meador et al. 18
[2] = cited from earlier work
[3] = Jordan Harbour brown bullhead, wet weight
Protocol: (§1) Plasma from 9 individual male fish (500 µL/individual) was pooled to yield 3 samples for PPCP analysis. […] Plasma from 6 individual carp (2.3–3.5 g) from each location was selected for PPCP analysis. […] Plasma samples were frozen (−80 °C) until analysis.
(§2) A total of 20 fish plasma samples from the pooled caged fish (7) and the wild fish (13) along with 12 water samples were selected for analysis. […] A full list of analytes is provided in Supplementary Information. Mass labelled^13C-, or deuterated surrogate internal standards were used for quantification of all analytes via the isotope dilution/surrogate standard quantitation method. Prior to extraction and/or clean-up procedures, aqueous samples were adjusted to pH 2.0, spiked with extraction surrogate standards, then adjusted to pH 4 using tetrasodium ethylenediamine-tetraacetate dihydrate. Plasma samples (2.3–2.5 g) were spiked with extraction surrogate standards, sonicated with 20 mL acetonitrile, then diluted with ultra-pure water to 200 mL. The extracts were cleaned up by solid phase extraction using Oasis HLB cartridges (Waters Ltd. Mississauga ON), filtered, and analyzed by liquid chromatography-electrospray ionization-tandem mass spectrometry (LC/ESI-MS/MS) in positive or negative ionization mode. The analysis of the complete list of analytes (SI Table S1) required a total of five instrumental runs.

[4] = cited from earlier work; for Salmon (whole body) concentration: Table S7, ref Meador et al. (2016); for whole fish concentration, salmon: ref Meador et al. 18
[5] = Plasma bioaccumulation factor (BAFP), carp; type: in vivo, carp (Cyprinus carpio)
Protocol: (§3) Bioaccumulation factor (BAFP) was calculated as concentration in fish plasma (ng/g × 1000) divided by concentration in water (ng/L). Two widely used modeling approaches for predicting organic contaminant bioaccumulation were assessed: the BCF-BAF model for whole body BAFs[53] and the fish-plasma concentration calculation of Huggett et al.[35] modified by Berninger et al.[54]. The latter involves estimating an octanol-water partition coefficient (Kow) adjusted for fraction ionized (log D), using the pKa value to adjust log Kow[54] taking into account the pH of CPM waters. Further information on the calculation of log D, blood-water partitioning (PBW), and plasma concentrations (FPC) is given in the SI.

in vivo = details: for concentration at 21 days: goldfish (Carassius auratus), in vivo
Source text: Cages were visited weekly, and fish (13/cage) were fed during the visits (20 g/cage). All animal experiments were in accordance with CCAC guidance and approved by the GLLFAS-WSTD Animal Care Committee (Government of Canada). Further details on the caging and preparation of the fish and animal care protocols are provided in Simmons et al.[32]. […] A fourth site, Jordan Harbour (JH), a widening of 20 Mile Creek adjacent to Lake Ontario near Jordan ON, served as a reference site. Mass and fork length were measured and recorded. Plasma collection and storage is described in the SI. Plasma of caged goldfish was divided for proteome, metabolome and PPCP analysis. Due to limited volumes, pooled samples of plasma from 25 individual fish (50 µL/individual) was pooled to yield one sample from at each location for PPCP analysis.
as §2
(§4) Quality assurance steps included analysis of lab blanks for water and plasma along with matrix recovery spikes. […] Detection limits (DLs) were defined as lowest calibration level adjusted to the maximal sample size or 3 times the signal of the noise in the target channel converted to an equivalent sample, whichever was greater. […] Where analytes were detected in two or more samples of the same species or series of water samples, non-detect values were converted to ½ the DL value for reporting purposes.

[6] = Plasma bioaccumulation factor (BAFP), goldfish; type: in vivo, goldfish (Carassius auratus); details: for BAFP, CPM2 goldfish caged: water sample of August 2012
Protocol: as §3

[7] = for plasma concentration, CPM-C 01: Cootes carp 01, 2011, male; for plasma concentration, CPM-C 2: Cootes carp 2, Sep 27, 2011, male; for plasma concentration, CPM-C 10: Cootes carp 10, Sep 28, 2011, female; for plasma concentration, CPM-C 20: Cootes carp 20, 2011, male; for plasma concentration, JH-C 54: Jordan Harbour carp 54, Nov 7, 2011, male; for plasma concentration, JH-C 73: Jordan Harbour carp 73, Nov 7, 2011, female; for plasma concentration, JH-C 74: Jordan Harbour carp 74, Nov 7, 2011, male; for plasma concentration, JH-C 75: Jordan Harbour carp 75, Nov 7, 2011, female; for plasma concentration, JH-C 78: Jordan Harbour carp 78, Nov 7, 2011, male; for plasma concentration, JH-C 82: Jordan Harbour carp 82, Nov 7, 2011, female
Protocol: as §1, §2, §4

[8] = parameters: method as in US EPA Chemistry Dashboard; details: ref US EPA Chemistry Dashboard; cited from earlier work
[9] = cited from earlier work; for BAFP: treated WWTP effluent from two Swedish cities
[10] = cited from earlier work; remark: listed apart in the source
[11] = cited from earlier work; remark: listed apart in the source
[12] = conc in fish plasma/conc in water
[13] = range based on range of plasma concentrations
[14] = male, goldfish (Carassius auratus), in vivo

## CCN(CC)C(=O)c1cccc(C)c1 [DEET, N,N-Diethyl-m-toluamide]
[1]
  Sculpin (whole body) concentration: 0.41 to 2.2 ng/g
  whole fish concentration, sculpin: 0.41 - 2.2 ng/g wet weight or ng/mL for plasma
[2]
  BAFP in carp plasma, median: < 6.2
[3]
  plasma concentration, JH-BB: 2.59 ng/g
[4]
  Salmon (whole body) concentration: 0.39 to 1.6 ng/g
  whole fish concentration, salmon: 0.39 - 1.6 ng/g wet weight or ng/mL for plasma
[5]; Jordan Harbour
  BAFP at JH, carp, average: 32 L/kg
  BAFP at JH, carp, range: 4 to 51 L/kg
[5]; [12]
  BAFP at CPM3, carp, average: 15 L/kg
[5]; [13]
  BAFP at CPM3, carp, range: 4 to 22 L/kg
In vivo; CPM1, 07-2014, pooled plasma, wet weight
  plasma concentration, CPM1 caged: 0.416 ng/g
In vivo; CPM2, 07-2014, pooled plasma, wet weight
  plasma concentration, CPM2 caged: 0.41 ng/g
In vivo; CPM3, 07-2014, pooled plasma, wet weight
  plasma concentration, CPM3 caged: 0.314 ng/g
In vivo; Cootes Paradise Marsh, range
  caged goldfish plasma, range of concentrations: 0.23 to 0.58 ng/g
In vivo; Jordan Harbour reference site, 07-2014, pooled plasma, wet weight
  plasma concentration, JH caged: 0.235 ng/g
[6]
  BAFP, CPM1 goldfish caged: 4 L/kg
  BAFP, CPM2 goldfish caged: 4 L/kg
[6]; CPM3
  BAFP, CPM3 goldfish caged: 4 L/kg
[6]; Jordan Harbour
  BAFP, JH goldfish caged: 9 L/kg
[6]; [12]
  BAFP at CPM3, wild goldfish, average: 9 L/kg
[6]; [13]
  BAFP at CPM3, wild goldfish, range: 4 to 11 L/kg
[7]; Cootes Paradise Marsh, range
  Cootes carp plasma, range of concentrations: 0.19 to 1.15 ng/g
  wild goldfish plasma, range of concentrations: 0.31 to 0.42 ng/g
[7]; wet weight
  plasma concentration, CPM-C 01: 0.194 ng/g
  plasma concentration, CPM-C 2: 1.09 ng/g
  plasma concentration, CPM-C 10: 1.15 ng/g
  plasma concentration, CPM-C 20: 0.35 ng/g
  plasma concentration, JH-C 54: 0.331 ng/g
  plasma concentration, JH-C 73: 0.083 ng/g
  plasma concentration, JH-C 74: 0.494 ng/g
  plasma concentration, JH-C 75: 0.914 ng/g
  plasma concentration, JH-C 78: 1.09 ng/g
  plasma concentration, JH-C 82: 0.865 ng/g
[7]; Cootes carp 13, Sep 28, 2011, female, wet weight
  plasma concentration, CPM-C 13: 1.1 ng/g
[7]; Cootes carp 36, Oct 3, 2011, female, wet weight
  plasma concentration, CPM-C 36: 0.743 ng/g
[7]; Jordan Harbour, carp vs caged goldfish
  plasma concentration, fold higher in carp plasma than in goldfish: about 2 fold
[7]; Table S7
  Carp plasma concentration, this study (range): 0.19 to 1.15 ng/g
  Goldfish plasma concentration, this study (range): 0.23 to 0.58 ng/g
[7]; Table S8
  plasma concentration, carp, this study (mean): 0.77 ng/g wet weight or ng/mL for plasma
  plasma concentration, goldfish, this study (mean): 0.46 ng/g wet weight or ng/mL for plasma
[7]; wild goldfish sample 01, 2012, wet weight
  plasma concentration, CPM wild-01: 0.234 ng/g
[7]; wild goldfish sample 02, 2012, wet weight
  plasma concentration, CPM wild-02: 0.584 ng/g
[7]; wild goldfish sample 03, 2012, wet weight
  plasma concentration, CPM wild-03: 0.56 ng/g
[8]
  log Kow: 2.18

## CC(C)Cc1ccc(C(C)C(=O)O)cc1 (stereo not drawn) [Ibuprofen]
[3]
  plasma concentration, JH-BB: < 5.7 ng/g
[7]; wet weight
  plasma concentration, CPM-C 01: < 3.16 ng/g
  plasma concentration, CPM-C 2: < 4.31 ng/g
  plasma concentration, CPM-C 10: < 4.53 ng/g
  plasma concentration, CPM-C 20: < 3.23 ng/g
  plasma concentration, JH-C 54: < 3.18 ng/g
  plasma concentration, JH-C 73: < 3.09 ng/g
  plasma concentration, JH-C 74: < 3.19 ng/g
  plasma concentration, JH-C 75: < 4.52 ng/g
  plasma concentration, JH-C 78: < 3.13 ng/g
  plasma concentration, JH-C 82: < 3.01 ng/g
[9]
  BAFP: 21–58

## O=C1Nc2ccc(Cl)cc2C(c2ccccc2)=NC1O (stereo not drawn) [Oxazepam]
[9]
  BAFP: 0.7–3.6

## CN[C@H]1CC[C@@H](c2ccc(Cl)c(Cl)c2)c2ccccc21 [Sertraline]
[1]
  Sculpin (whole body) concentration: 0.2 ng/g
  whole fish concentration, sculpin: 0.2 ng/g wet weight or ng/mL for plasma
[2]
  BAFP in carp plasma, median: 8.9
[2]; mean ± SD, ref Tanoue et al.16
  plasma concentration, crucian carp & common carp: 0.21±0.18 ng/g wet weight or ng/mL for plasma
[4]
  Salmon (whole body) concentration: 17 ng/g
  whole fish concentration, salmon: 17 ng/g wet weight or ng/mL for plasma
[6]
  BAFP, CPM1 goldfish caged: 50 L/kg
  BAFP, CPM2 goldfish caged: 27 L/kg
[9]; ref Fick et al. 12
  plasma concentration, rainbow trout: 0.30-2.4 ng/g wet weight or ng/mL for plasma
[10]; human, converted from µg/mL, ref Schulz et al.[56]
  Therapeutic "normal" blood-plasma/serum concentration: 50 to 250 ng/mL
[10]; human, ref Schulz et al.[56]
  toxic dose (toxic blood-plasma/serum concentration): 290 ng/mL
[10]; ref Berninger & Brooks[60]
  Cmax (human therapeutic dose): 290 ng/mL
[8]
  log Kow: 5.29

## Cc1cc(C)nc(NS(=O)(=O)c2ccc(N)cc2)n1 [Sulfamethazine]
In vivo; caged goldfish plasma, range of concentrations
  concentration at 21 days: 0.06 to 0.17 ng/g
In vivo; plasma concentration, CPM1 caged
  concentration at 21 days: < 0.244 ng/g
In vivo; plasma concentration, CPM2 caged
  concentration at 21 days: < 0.165 ng/g
In vivo; plasma concentration, CPM3 caged
  concentration at 21 days: < 0.123 ng/g
In vivo; plasma concentration, JH caged
  concentration at 21 days: < 0.12 ng/g
[6]; goldfish and carp
  log BAFP, goldfish and carp in this study: 1.53–2.73
[11]; ref Zhao et al. 15
  plasma concentration, carp and tilapia: 6.47 ng/g wet weight or ng/mL for plasma
[11]; tilapia and carp species in southern China
  log BAFP: 1.92–4.18
[7]; in vivo
  plasma concentration, carp, this study (mean): < mdl
[7]; [14]
  plasma concentration, CPM wild-01: 0.166 ng/g
  plasma concentration, CPM wild-02: 0.084 ng/g
  plasma concentration, CPM wild-03: 0.066 ng/g
  plasma concentration, goldfish, this study (mean): 0.11 ng/g wet weight or ng/mL for plasma
[8]
  log Kow: 0.19
